Source: a compilation of properties of binary mixtures (doi:10.1007/s10953-016-0490-x)

Assay: xn = mol fraction of the nth substance listed
Conditions: 100 kPa

CCOC(C)=O + CCCC[n+]1ccn(C)c1.O=S(=O)([O-])C(F)(F)F
x2 = 0
Conditions	speed of sound [m/s]	viscosity [mPa·s]
303.15 K	1118.3	0.4
308.15 K	1096	0.37
313.15 K	1073.7	0.35
318.15 K	1051.7	0.34
323.15 K	1029.5	0.33

CCCC[n+]1ccn(C)c1.O=S(=O)([O-])C(F)(F)F + CCOC(C)=O
Conditions	speed of sound [m/s]	viscosity [mPa·s]
298.15 K, x1 = 0.0991	1172.2	1.27
298.15 K, x1 = 0.1916	1209.8	4.59
298.15 K, x1 = 0.3056	1252.1	10.8
298.15 K, x1 = 0.3978	1279.4	16
298.15 K, x1 = 0.5067	1310.3	22
298.15 K, x1 = 0.7138	1361.8	35
298.15 K, x1 = 0.7987	1374.2	41.8
298.15 K, x1 = 1	1393.2	82
303.15 K, x1 = 0.0991	1153.5	0.99
303.15 K, x1 = 0.1916	1191.9	3.76
303.15 K, x1 = 0.3056	1236.1	9
303.15 K, x1 = 0.5067	1296.5	18.5
303.15 K, x1 = 0.6095	1324.9	23.6
303.15 K, x1 = 0.7138	1349.9	29.1
303.15 K, x1 = 0.7987	1362.1	34.7
303.15 K, x1 = 0.8932	1371.6	44.9
308.15 K, x1 = 0.0991	1132.8	0.89
308.15 K, x1 = 0.1916	1174	3.12
308.15 K, x1 = 0.3056	1220.2	7.3
308.15 K, x1 = 0.3978	1251.5	10.8
308.15 K, x1 = 0.5067	1282.6	15.1
308.15 K, x1 = 0.6095	1312.1	19.6
308.15 K, x1 = 0.7138	1338.2	24.6
308.15 K, x1 = 0.7987	1351	29.1
308.15 K, x1 = 0.8932	1359.7	37.1
308.15 K, x1 = 1	1371.7	53
313.15 K, x1 = 0.1916	1156.4	2.89
313.15 K, x1 = 0.3056	1204.4	6.6
313.15 K, x1 = 0.3978	1237.6	9.8
313.15 K, x1 = 0.5067	1268.7	13.5
313.15 K, x1 = 0.6095	1300.4	17.1
313.15 K, x1 = 0.7138	1326.8	20.9
313.15 K, x1 = 0.7987	1338.3	24.6
313.15 K, x1 = 0.8932	1349.5	31
318.15 K, x1 = 0.0991	1091.7	0.79
318.15 K, x1 = 0.3056	1188.6	5.8
318.15 K, x1 = 0.3978	1223.7	8.5
318.15 K, x1 = 0.5067	1254	11.7
318.15 K, x1 = 0.6095	1288	14.8
318.15 K, x1 = 0.7138	1314.3	18
318.15 K, x1 = 0.7987	1326.4	21.1
318.15 K, x1 = 0.8932	1337.3	26.2
323.15 K, x1 = 0.0991	1071.3	0.75
323.15 K, x1 = 0.1916	1120.7	2.26
323.15 K, x1 = 0.3056	1172.8	5
323.15 K, x1 = 0.3978	1210.9	7.2
323.15 K, x1 = 0.5067	1240.3	9.9
323.15 K, x1 = 0.6095	1274.9	12.9
323.15 K, x1 = 0.7138	1303.2	15.6
323.15 K, x1 = 1	1338.8	30.6
